Patent US5159080A, “Indole compounds, a process for their preparation, and pharmaceutical compositions containing them” (Madaus AG, priority 1988, dated 1992)
Read-outs that look alike come from different tables or passages of the source.

What was measured:
[1] = Change of heart frequency and average blood pressure in narcotized rats (maximum effect over 2 hours); type: in vivo; conditions: Rattus norvegicus, iv, maximum effect over 2 h, hemi-tartrate; for change in vivo at 10 mg/kg: 10 mg/kg i.v.; for change in vivo at 20 mg/kg: 20 mg/kg i.v.; for change in vivo at 2 mg/kg: 2 mg/kg i.v.; for change in vivo at 5 mg/kg: 5 mg/kg i.v.; for change in vivo at 1 mg/kg: 1 mg/kg i.v.; for change in vivo at 50 mg/kg: 50 mg/kg i.v.
[2] = tested on: guinea pig left auricles; assay: Isolated left auricles stimulated with 1 Hz, inotropic effect; conditions: Cavia porcellus, read-out: Maximum effect in % of initial value, LEFT AURICLE INTROPIC; for Emax at 0.5 µg/mL: 0.5 μg/ml; for Emax at 2 µg/mL: 2.0 μg/ml; for Emax at 4 µg/mL: 4.0 μg/ml; for Emax at 10 µg/mL: 10.0 μg/ml; for Emax at 20 µg/mL: 20.0 μg/ml
Protocol: (§1) The test process employed is described, inter alia, in: Staff of the Department of Pharmacology, University of Edinburgh (1970): Pharmacological Experiments on Isolated Preparation, Churchill Livingston, Edinburgh, London and New York, page 112.
(§2) Animals having a body weight of about 500 g, were used and were divided into groups of 4 animals each. The compounds to be tested were dissolved in tyrode solution/sodium chloride solution 50:50 v/v and the desired concentration adjusted in the bath liquid. The experiment was carried out in the known manner.

[3] = tested on: guinea pig right auricles; assay: Isolated, spontaneously beating right auricles, chronotropic effect; conditions: Cavia porcellus, read-out: Maximum effect in % of initial value, RIGHT AURICLE CHRONOTROPIC; for Emax at 2 µg/mL: 2.0 μg/ml; for Emax at 4 µg/mL: 4.0 μg/ml; for Emax at 10 µg/mL: 10.0 μg/ml; for Emax at 20 µg/mL: 20.0 μg/ml
Protocol: as §1, §2

[4] = read-out: CHANGE OF HEART FREQUENCY (%)
[5] = read-out: BLOOD PRESSURE CHANGE AVERAGE PRESSURE (%)

Row | Structure (SMILES) | change in vivo at 10 mg/kg [1, 4] | Emax at 2 µg/mL [2] | Emax at 4 µg/mL [2] | Emax at 2 µg/mL [3] | Emax at 4 µg/mL [3] | change in vivo at 2 mg/kg [1, 5] | change in vivo at 5 mg/kg [1, 5] | change in vivo at 10 mg/kg [1, 5] | Emax at 10 µg/mL [2] | Emax at 10 µg/mL [3] | change in vivo at 2 mg/kg [1, 4] | change in vivo at 5 mg/kg [1, 4] | Emax at 20 µg/mL [2] | Emax at 20 µg/mL [3] | further results
1 | O=C1C[C@H]2CCNC[C@H]2Cc2c1[nH]c1ccccc21 (relative stereo) [SI-WG 422] | -12.8% | -12.2% | -14.9% | -19.3% | -36.1% | – | – | – | – | – | – | – | – | – | change in vivo at 20 mg/kg [1, 5]: 21.8%; change in vivo at 20 mg/kg [1, 4]: -15.5%; Emax at 0.5 µg/mL [2]: -4.2%; Emax at 0.5 µg/mL ([3]; 0.5 μg/ml): -6.7%
2 | CN1CC[C@@H]2CC(=O)c3[nH]c4cc5c(cc4c3C[C@@H]2C1)OCO5 (relative stereo) [SI-WG 562] | -6% | -4.1% | -6% | -11.3% | -15.7% | -3.4% | -9.4% | -12.4% | -7.4% | -31.8% | – | – | – | – | –
3 | CN1CCC2=C(Cc3c([nH]c4ccccc34)C(=O)C2)C1 [SI-WG 334a, 1,3,4,5,7,12-hexahydro-2-methyl-2H-pyrido [3',4':4,5]-cyclohept [1,2-b] indol-6-one] | -20.8% | 26% | – | -14% | – | -17.2% | -25.9% | -30.1% | 25% | -29% | -21.2% | -19.6% | 33% | -43% | –
4 | CN1CC[C@@H]2CC(=O)c3[nH]c4ccc(Br)cc4c3C[C@@H]2C1 (relative stereo) [SI-WG 399] | -12.1% | 25% | 13% | -43% | -66% | – | – | – | – | -83% | – | -6.6% | – | – | inhibition at 0.5 µg/mL ([3]; 0.5 μg/ml): 22%
5 | CCCN1CC[C@@H]2CC(=O)c3[nH]c4ccccc4c3C[C@@H]2C1 (relative stereo) [SI-WG 533] | -17.9% | 11.1% | 18.1% | -15.9% | -26% | – | -20.1% | -22.7% | 17% | -34.1% | – | -9.7% | – | – | change in vivo at 20 mg/kg [1, 5]: -37.4%; change in vivo at 20 mg/kg [1, 4]: -19.8%
6 | CN1CC[C@@H]2CC(=O)c3[nH]c4ccc(C#N)cc4c3C[C@@H]2C1 (relative stereo) [SI-WG 600] | -9.4% | 12.4% | 23% | -25.2% | -32.7% | 9.5% | -6% | 4.8% | 30% | -49.1% | – | -8.9% | – | – | –
7 | CN1CC=C2CC(=O)c3[nH]c4ccccc4c3CC2C1 (stereo not shown) [SI-WG 360, 1,3,5,7,12,12a-hexahydro-2-methyl-2H-pyrido [3',4':4,5]-cyclohept [1,2-b] indol-6-one] | -22.2% | 17% | – | -10% | – | -10.3% | -23% | -34.2% | 39% | -29% | -10.7% | -14.3% | 50% | -41% | –
8 | CN1CC[C@@H]2CC(=O)c3[nH]c4ccc(C(C)(C)C)cc4c3C[C@@H]2C1 (relative stereo) [SI-WG 578] | – | -3.6% | -12.1% | -19.4% | -28.1% | – | 2% | – | -10.9% | -52.9% | -6.2% | -10.2% | – | – | –
9 | CN1CC[C@@H]2CC(=O)c3[nH]c4c(O)cccc4c3C[C@@H]2C1 (relative stereo) [SI-WG 625] | – | – | -4.7% | -13.8% | -17.4% | – | -9.4% | – | -8.9% | -26.3% | – | -8.4% | – | – | –
10 | COc1cc2[nH]c3c(c2c(OC)c1OC)C[C@@H]1CN(C)CC[C@@H]1CC3=O (relative stereo) [SI-WG 587] | -4.8% | – | 14.9% | – | -10.4% | – | 12.2% | 11.6% | 29.4% | -13.9% | – | – | 31.8% | -19.8% | –
11 | CN1CC[C@@H]2CC(=O)c3[nH]c4ccc(F)cc4c3C[C@@H]2C1 (relative stereo) [SI-WG 419] | -22.8% | 6% | -7% | -30% | -42% | -10.6% | -21.4% | -26.7% | -27% | -80% | -7.5% | -12.1% | – | – | Emax at 0.5 µg/mL [2]: 6%; Emax at 0.5 µg/mL ([3]; 0.5 μg/ml): -18%
12 | CC(C)c1ccc2[nH]c3c(c2c1)C[C@@H]1CN(C)CC[C@@H]1CC3=O (relative stereo) [SI-WG 454] | – | -7.9% | – | -26.4% | – | -6.8% | -7.4% | – | -11.4% | -65.1% | -9% | -20.3% | -33.3% | -72.7% | change in vivo at 1 mg/kg [1, 5]: -4.8%; change in vivo at 1 mg/kg [1, 4]: -7.6%
13 | CC(=O)c1[nH]c2ccccc2c1CC1CN(C)CCC1=O (stereo not shown) [SI-WG 331, 2-Acetyl-3-(N.methyl-4-'-piperidon-3'-ylmethyl)-indole] | – | 8% | – | -7% | – | – | – | – | 14% | -12% | – | – | 31% | -23% | change in vivo at 20 mg/kg [1, 5]: -18.4%; change in vivo at 20 mg/kg [1, 4]: -9.7%; change in vivo at 50 mg/kg [1, 5]: -29.1%; change in vivo at 50 mg/kg [1, 4]: -19.3%
14 | CN1CC[C@@H]2CC(=O)c3c(c4ccccc4n3C)C[C@@H]2C1 (relative stereo) [SI-WG 591] | – | 11.8% | 12% | -20% | -31.9% | – | – | – | 27.4% | -43.9% | – | – | – | – | –
15 | COc1ccc2[nH]c3c(c2c1)C[C@@H]1CN(C)CC[C@@H]1CC3=O (relative stereo) [SI-WG 449] | -17% | 16% | – | -19% | – | -16% | -10% | -22% | 23% | -40% | – | -12% | 20% | -57% | –
16 | CC(=O)Nc1ccc2[nH]c3c(c2c1)C[C@@H]1CN(C)CC[C@@H]1CC3=O (relative stereo) [SI-WG 604] | – | – | – | – | – | – | – | -10.7% | 9.8% | -10.2% | – | – | 8.2% | -15.6% | change in vivo at 20 mg/kg [1, 5]: -15.6%; Emax at 60 µg/mL ([2]; 60.0 μg/ml): 13.8%; Emax at 60 µg/mL ([3]; 60.0 μg/ml): -24.7%
